# Assay results reported in US20080213743A1, “Method for adjusting sedimentation rates” (priority 2007, published 2008).
# Test system: bone marrow aspirate
# Assay: Centrifugal fractionation of bone marrow aspirate with the whole-blood platelet rich plasma protocol; analysis of ten milliliter concentrate sample
# Type: cell-based
# Conditions: 60 mls bone marrow aspirate collected into heparin, 8-10 mls of ACD added or heparin alone, two centrifugations
# Description: In one specific example of the invention, 60 mls of bone marrow aspirate is collected into a bag or syringe having heparin as the anticoagulant. A bag is preferred to be able to inspect the collected marrow. Then, 8-10 mls of ACD are added to the collected aspirate to adjust the sedimentation rate of the components, particularly the red blood cells. The aspirate mixture is then placed in the first chamber of a two-chamber processing unit and subjected to centrifugation according to a known protocol designed to fractionate whole blood for the purpose of making platelet rich plasma as described in U.S. Pat. No. 6,398,972. The supernatant is then decanted to the second chamber and again subjected to centrifugation according to the said process designed to separate platelets to make platelet rich plasma. Supernatant from the second centrifugation is withdrawn to leave a ten milliliter concentrate sample remaining in the chamber. […] In contrast, when same process is followed with heparin alone, the sample is 3% Hct with a TNC of 32.4×10^3/μl.
substance,measurement,value
heparin,Hct of concentrate sample,3 % Hct
same,total nucleated cell count (TNC) of concentrate sample,32400 µL⁻¹
